Data set [1] is described as follows: Formation of 1,5-cz-[Ln(Lig)] from Lig and Ln^III ions (metal dependent click-zip), MOPS/NaOH buffer pH 7.0, analytical HPLC (Charts 1, 2).
Data set [2] can be described thus: Formation of 1,5-cz-[M(Lig)] from Lig and M^III ions (metal dependent click-zip) (Charts 4, 5). Format: physicochemical. The note with it: MOPS/NaOH buffer pH 7.0; for conversion to 1,5-cz-[M(Lig)], Sc^III / conversion to 1,5-cz-[M(Lig)], Y^III: TD728, TD827 in 50% i-PrOH; for conversion to 1,5-cz-[M(Lig)], Y^III: TD714 sum of two diastereoisomers.
The mark [3] stands for this setting: after 1 week at 80° C., 50% i-PrOH in aq. MOPS/NaOH Buffer pH 7.0.
Where [4] appears, read: after 1 hour at 80° C., 50% i-PrOH in aq. MOPS/NaOH Buffer pH 7.0.
Setting [5] is: after 1 week at 80° C., MOPS/NaOH buffer pH 7.0.
[6] abbreviates: after 1 hour at 80° C., MOPS/NaOH buffer pH 7.0.

The record followed here is patent US20250147039A1, “Compounds for complexation of rare earth elements and/or s-, p-, d- block metals, their coordination compounds, peptide conjugates, method of their preparation and use thereof” (USTAV ORGANICKE CHEMIE A BIOCHEMIE AV CR V.V.I., priority 2021, published 2025).

Take `C#Cc1cccc(CN2CCN(CC(=O)O)CCN(Cc3cc(C#C[Si](C(C)C)(C(C)C)C(C)C)cc(CN=[N+]=[N-])n3)CCN(CC(=O)O)CC2)n1` [TD827]: in data set [1] (setting [3]), the “conversion to 1,5-cz-[Ln(Lig)], Ce^III” value turned out to be 22%; the “conversion to 1,5-cz-[Ln(Lig)], Dy^III” value amounted to 96%; the “conversion to 1,5-cz-[Ln(Lig)], Er^III” value came to 96%; the “conversion to 1,5-cz-[Ln(Lig)], Eu^III” value is 92%. Besides, in data set [1] (setting [3]), the “conversion to 1,5-cz-[Ln(Lig)], Gd^III” value is listed as 93%; the “conversion to 1,5-cz-[Ln(Lig)], Ho^III” value is on record as 96%; the “conversion to 1,5-cz-[Ln(Lig)], La^III” value stood at 46%; the “conversion to 1,5-cz-[Ln(Lig)], Lu^III” value came to 97%. Moreover, in data set [1] (setting [3]), the “conversion to 1,5-cz-[Ln(Lig)], Nd^III” value is recorded as 84%; the “conversion to 1,5-cz-[Ln(Lig)], Pr^III” value is 79%; the “conversion to 1,5-cz-[Ln(Lig)], Sm^III” value is on record as 91%; the “conversion to 1,5-cz-[Ln(Lig)], Tb^III” value came out at 95%. In data set [1] (setting [3]), the “conversion to 1,5-cz-[Ln(Lig)], Tm^III” value stood at 97% and the “conversion to 1,5-cz-[Ln(Lig)], Yb^III” value is recorded as 97%. In addition, in data set [1] (setting [4]), the “conversion to 1,5-cz-[Ln(Lig)], Ce^III” value is 2%; the “conversion to 1,5-cz-[Ln(Lig)], Dy^III” value worked out at 30%; the “conversion to 1,5-cz-[Ln(Lig)], Er^III” value turned out to be 56%; the “conversion to 1,5-cz-[Ln(Lig)], Eu^III” value stood at 9%. In addition, in data set [1] (setting [4]), the “conversion to 1,5-cz-[Ln(Lig)], Gd^III” value came to 11%; the “conversion to 1,5-cz-[Ln(Lig)], Ho^III” value turned out to be 43%; the “conversion to 1,5-cz-[Ln(Lig)], La^III” value is 1%; the “conversion to 1,5-cz-[Ln(Lig)], Lu^III” value is 77%. In data set [1] (setting [4]), the “conversion to 1,5-cz-[Ln(Lig)], Nd^III” value is 3%; the “conversion to 1,5-cz-[Ln(Lig)], Pr^III” value is on record as 2%; the “conversion to 1,5-cz-[Ln(Lig)], Sm^III” value amounted to 7%; the “conversion to 1,5-cz-[Ln(Lig)], Tb^III” value stood at 21%. Moreover, in data set [1] (setting [4]), the “conversion to 1,5-cz-[Ln(Lig)], Tm^III” value stood at 68% and the “conversion to 1,5-cz-[Ln(Lig)], Yb^III” value was determined as 75%. In addition, in data set [2] (1 week at 80° C.), the “conversion to 1,5-cz-[M(Lig)], Sc^III” value was found to be 55% and the “conversion to 1,5-cz-[M(Lig)], Y^III” value is 96%. For the same molecule, in data set [2] (1 hour at 80° C.), the “conversion to 1,5-cz-[M(Lig)], Sc^III” value was found to be 2% and the “conversion to 1,5-cz-[M(Lig)], Y^III” value came to 42%.
`C#Cc1cccc(CN2CCN(CC(=O)O)CCN(Cc3cc(C(=O)OC(C)(C)C)cc(CN=[N+]=[N-])n3)CCN(CC(=O)O)CC2)n1` [TD1160]: in data set [1] (setting [5]), the “conversion to 1,5-cz-[Ln(Lig)] with hydrolysed group in the side chain, Lu^III” value is 91%; the “conversion to 1,5-cz-[Ln(Lig)], Lu^III” value is on record as 0%; the “conversion to 1,5-cz-[Ln(Lig)] with hydrolysed group in the side chain, Sm^III” value is listed as 85%; the “conversion to 1,5-cz-[Ln(Lig)], Sm^III” value was 0%. Moreover, in data set [1] (setting [5]), the “conversion to 1,5-cz-[Ln(Lig)] with hydrolysed group in the side chain, Tb^III” value came out at 89% and the “conversion to 1,5-cz-[Ln(Lig)], Tb^III” value is 0%. Further, in data set [1] (setting [6]), the “conversion to 1,5-cz-[Ln(Lig)] with hydrolysed group in the side chain, Lu^III” value was found to be 61%; the “conversion to 1,5-cz-[Ln(Lig)], Lu^III” value is given as 3%; the “conversion to 1,5-cz-[Ln(Lig)] with hydrolysed group in the side chain, Sm^III” value is reported as 3%; the “conversion to 1,5-cz-[Ln(Lig)], Sm^III” value was determined as 0%. Besides, in data set [1] (setting [6]), the “conversion to 1,5-cz-[Ln(Lig)] with hydrolysed group in the side chain, Tb^III” value turned out to be 9% and the “conversion to 1,5-cz-[Ln(Lig)], Tb^III” value was 0%. Further, in data set [2] (1 week at 80° C.), the “conversion to 1,5-cz-[Ln(Lig)] with hydrolysed group in the side chain, Y^III” value is reported as 90% and the “conversion to 1,5-cz-[M(Lig)], Y^III” value is 0%. In data set [2] (1 hour at 80° C.), the “conversion to 1,5-cz-[Ln(Lig)] with hydrolysed group in the side chain, Y^III” value came out at 17% and the “conversion to 1,5-cz-[M(Lig)], Y^III” value is 1%.
